Experimental data from patent US11827628B2, “Compositions and methods for inhibition of the JAK pathway” (Rigel Pharmaceuticals, Inc., priority 2005, dated 2023).
pIC50: −log10 of the molar value. Like-named read-outs stand apart in the source and are kept apart here. Each block holds one molecule with its values, some of them ahead of it.

Tested on: IL-4 stimulated expression of CD23 in human Ramos B cells (JAK-1 and JAK-3)
Experiment: Assay for Ramos B-Cell Line Stimulated with IL-4 (CD23 upregulation, FACS)
Type: cell-based
Details: read-out: IC50, Example 41
Excerpt: One means of assaying for such inhibition is detection of the effect of the 2,4-substituted pyrimidinediamine compounds on the upregulation of downstream gene products. In the Ramos/IL4 assay, B-cells are stimulated with the cytokine Interleukin-4 (IL-4) leading to the activation of the JAK/Stat pathway through phosphorylation of the JAK family kinases, JAK1 and JAK3, which in turn phosphorylate and activate the transcription factor Stat-6. […] To study the effect of inhibitors (e.g., the 2,4-substituted pyrimindinediamine compounds described herein) on the JAK1 and JAK3 kinases, human Ramos B cells are stimulated with human IL-4. Twenty to 24 hours post stimulation, cells are stained for upregulation of CD23 and analyzed using flow cytometry (FACS). […] An exemplary assay of this type is described in greater detail in Example 41
B-cells stimulated with cytokine Interleukin-4 (IL-4) activate the JAK/Stat pathway through phosphorylation of the JAK family kinases, JAK-1 and JAK-3, which in turn phosphorylate and activate the transcription factor Stat-6. […] To study the effect of inhibitors on the JAK family kinases, human Ramos B cells are stimulated with human IL-4.
The Ramos B-cell line was acquired from ATCC (ATCC Catalog No. CRL-1596). The cells were cultured in RPMI 1640 (Cellgro, MediaTech, Inc., Herndon, VA, Cat No. 10-040-CM) with 10% fetal bovine serum (FBS), heat inactivated (JRH Biosciences, Inc, Lenexa, Kansas, Cat No. 12106-500M) according to ATCC propagation protocol. Cells were maintained at a density of 3.5×10^5. The day before the experiment, Ramos B-cells were diluted to 3.5×10^5 cells/mL to ensure that they were in a logarithmic growth phase.
Cells were spun down and suspended in RPMI with 5% serum. 5×10^4 cells were used per point in a 96-well tissue culture plate. Cells were pre-incubated with compound or DMSO (Sigma-Aldrich, St. Louis, MO, Cat No. D2650) vehicle control for 1 hour in a 37° C. incubator. Cells were then stimulated with IL-4 (Peprotech Inc., Rocky Hill, NJ, Cat No. 200-04) for a final concentration of 50 units/mL for 20-24 hours. Cells were then spun down and stained with anti-CD23-PE(BD Pharmingen, San Diego, CA, Cat No. 555711) and analyzed by FACS. Detection was performed using a BD LSR I System Flow Cytometer, purchased from Becton Dickinson Biosciences of San Jose, California The IC50 calculated based on the results of this assay are provided in TABLE XII.

[1] = Ramos B-cell line stimulated with IL-4, CD23 expression by FACS
[2] = Homo sapiens, Ramos, Ramos B-cell line stimulated with IL-4, CD23 expression by FACS
[3] = Homo sapiens, Ramos, Ramos B cells stimulated with IL-4, CD23 expression by FACS
[4] = Ramos B cells stimulated with IL-4, CD23 expression by FACS

- pIC50 [1]: 5.30
Molecule: CN1CCN(S(=O)(=O)c2cccc(Nc3ncc(F)c(Nc4ccc(CC#N)cc4)n3)c2)CC1 [III-5, N4-(4-Cyanomethyl)phenyl-5-fluoro-N2-[3-(4-methylpiperazin-1-yl)sulfonyl]phenyl-2,4-pyrimidinediamine]

- pIC50 [3]: 5.64
Molecule: Cc1ccc(Nc2ncc(F)c(Nc3ccc(C(=O)N4CCS(=O)(=O)CC4)cc3)n2)cc1S(N)(=O)=O [IX-38, N2-(3-Aminosulfonyl-4-methylphenyl)-N4-[4-(1,1-dioxo-4-thiomorpholinyl)carbonylphenyl]-5-fluoro-2,4-pyrimidinediamine]

- pIC50 [3]: 5.52
Molecule: CCCCNS(=O)(=O)c1cccc(Nc2ncc(F)c(Nc3ccc(F)c(Cl)c3)n2)c1 [VI-97, N2-(3-Butylaminosulfonylphenyl)-N4-(3-chloro-4-fluorophenyl)5-fluoro-2,4-pyrimidinediamine]

- pIC50 [4]: 5.46
Molecule: CS(=O)(=O)N1CCN(C(=O)c2ccc(Nc3nc(Nc4cccc(S(N)(=O)=O)c4)ncc3F)cc2)CC1 [IX-29, N2-(3-Aminosulfonylphenyl)-5-fluoro-N4-[4-(1-methanesulfonyl-4-piperizinyl)carbonylphenyl]-2,4-pyrimidinediamine]

- pIC50 [4]: 5.60
Molecule: Cc1ccc(Nc2ncc(F)c(NC3CNCCC3C)n2)cc1S(N)(=O)=O (racemic) [VII-4, Racemic N2-(3-aminosulfonyl-4-methylphenyl)-5-fluoro-N4-(4-methylpiperidin-3-yl)-2,4-pyrimidinediamine]

- pIC50 [4]: 5.00
Molecule: CCOC(=O)CN(c1ccc(OC)c(Cl)c1)c1nc(Nc2ccc(C)c(S(N)(=O)=O)c2)ncc1C(=O)OCC [VI-25, N2-(3-Aminosulfonyl-4-methylphenyl)-5-carboethoxy-N4-(N-carboethoxymethylene-N-3-chloro-4-methoxyphenyl)-2,4-pyrimidinediamine]

- pIC50 [1]: 6.40
Molecule: Cc1cc(CCC#N)ccc1Nc1nc(Nc2ccc(C)c(S(N)(=O)=O)c2)ncc1F [III-23, N2-(3-Aminosulfonyl-4-methylphenyl)-N4-(4-cyanoethylene-2-methylphenyl)-5-fluoro-2,4-pyrimidinediamine]

- pIC50 [3]: 5.05
Molecule: Cc1ccc(Nc2ncc(F)c(Nc3ccc4c(C(N)=O)c[nH]c4c3)n2)cc1S(N)(=O)=O [IX-9, N4-[3-(Aminocarbonyl)-1H-indol-6-yl]-N2-(3-aminosulfonyl-4-methylphenyl)-5-fluoro-2,4-pyrimidinediamine]

- pIC50 [3]: 6.05
Molecule: NS(=O)(=O)c1cc(Nc2ncc(F)c(Nc3ccc(Cl)c(S(N)(=O)=O)c3)n2)ccc1Cl [VI-115, N2,N4-Bis-(3-aminosulfonyl-4-chlorophenyl)-5-fluoro-2,4-pyrimidinediamine]

- pIC50 [3]: 7.02
Molecule: C#CCNS(=O)(=O)c1cccc(Nc2nc(Nc3ccc(C)c(S(N)(=O)=O)c3)ncc2F)c1 [VI-79, N2-(3-Aminosulfonyl-4-methylphenyl)-5-fluoro-N4-[3-(prop-2-ynylaminosulfonyl)phenyl]-2,4-pyrimidinediamine]

- pIC50 [4]: 5.20
Molecule: CNS(=O)(=O)c1cc(Nc2ncc(F)c(Nc3ccc(C(=O)N4CCN(C(C)=O)CC4)cc3)n2)ccc1C [IX-25, N4-[4-(1-Acetyl-4-piperizinyl)carbonylphenyl]-5-fluoro-N2-[3-(N-methylaminosulfony)-4-methylphenyl]-2,4-pyrimidinediamine]

- pIC50 [4]: 5.61
Molecule: COc1ccc(Nc2ncc(F)c(Nc3ccc(CN4CCS(=O)(=O)CC4)cc3)n2)cc1S(N)(=O)=O [III-112, N2-(3-Aminosulfonyl-4-methyloxyphenyl)-5-fluoro-N4-{4-[(1,1-dioxothiomorpholin-4-yl-)methyl]phenyl}-2,4-pyrimidinediamine]

- pIC50 [4]: 6.06
Molecule: N4-(2-Amino-3-methoxypyrid-6-yl)-N2-[3-(ethoxycarbonylmethylene)aminosulfonylphenyl)-5-fluoro-2,4-pyrimidinediamine [VII-10]

- pIC50 [3]: 6.04
Molecule: NS(=O)(=O)c1cccc(Nc2ncc(F)c(Nc3ccc(O)cc3)n2)c1 [VI-101, N2-(3-Aminosulfonylphenyl)-5-fluoro-N4-(4-hydroxyphenyl)-2,4-pyrimidinediamine]

- pIC50 [4]: 6.53
Molecule: CCNC(=O)NCCc1ccc(Nc2nc(Nc3ccc(C)c(S(N)(=O)=O)c3)ncc2F)cc1 [III-124, N2-(3-aminosulfonyl-4-methyl)phenyl-N4-[4-(2-ethylaminocarbonylamino)ethyl]phenyl-5-fluoro-2,4-pyrimidinediamine]

- pIC50 [1]: 6.00
Molecule: CCn1nccc1NC(=O)Cc1ccc(Nc2nc(Nc3cccc(S(N)(=O)=O)c3)ncc2F)cc1 [III-51, N2-(3-Aminosulfonylphenyl)-N4-[(1-ethylpyrazolyl-5-aminocarbonylmethylene)phenyl]-5-fluoro-2,4-pyrimidinediamine]

- pIC50 [3]: 5.89
Molecule: CCNC(=O)NCc1ccc(Nc2nc(Nc3ccc(S(N)(=O)=O)cc3)ncc2F)cc1 [III-119, N2-(4-Aminosulfonylphenyl)-N4-(4-ethylaminocarbonylaminomethylphenyl]-5-fluoro-2,4-pyrimidinediamine]

Second part, the molecule before the results:

Molecule: Cc1cc(Nc2nc(Nc3ccc(C)c(S(N)(=O)=O)c3)ncc2F)ccc1OC1CCN(C)CC1 [II-5, N2-(3-Aminosulfonyl-4-methylphenyl)-5-fluoro-N4-{3-methyl-4-[(1-methylpiperidin-4-yl)oxy]phenyl}-2,4-pyrimidinediamine]
- pIC50 [2]: 5.66

Molecule: CN(C)C(=O)COc1ccc(Nc2nc(Nc3cccc(S(N)(=O)=O)c3)ncc2F)cc1 [Compound I-129, N2-(3-Aminosulfonylphenyl)-N4-(4-dimethylaminocarbonylmethoxyphenyl)-5-fluoro-2,4-pyrimidinediamine]
- pIC50 [2]: 6.21

Molecule: 5-Fluoro-N4-(4-[3-methyl-1,2,4-oxadiazol-5-yl]methyleneoxyphenyl)-N2-(5-piperidinesulfonylphenyl)-2,4-pyrimidinediamine [Compound I-272]
- pIC50 [1]: 6.10

Molecule: CNC(=O)COc1ccc(Nc2nc(Nc3ccc(S(N)(=O)=O)cc3)ncc2F)cc1 [Compound I-143, N2-(4-Aminosulfonylphenyl)-5-fluoro-N4-(4-methylaminocarbonylmethoxyphenyl)-2,4-pyrimidinediamine]
- pIC50 [2]: 5.92

Molecule: CN1CCN(S(=O)(=O)c2cccc(Nc3ncc(F)c(Nc4cccc(OCC(N)=O)c4)n3)c2)CC1 [Compound I-89, N4-(3-Aminocarbonylmethoxy)phenyl-5-fluoro-N2-[3-(4-methylpiperazin-1-yl)sulfonyl]phenyl-2,4-pyrimidinediamine]
- pIC50 [1]: 5.26

Molecule: CNS(=O)(=O)c1ccc(Nc2ncc(F)c(Nc3ccc(OC(F)(F)F)c(Cl)c3)n2)cc1OC [Compound I-269, 5-fluoro-N2-(4-N-methylaminosulfonyl)-3-methoxyphenyl-N4-(4-trifluoromethoxy-3-chlorophenyl)-2,4-pyrimidinediamine]
- pIC50 [1]: 6.04

Molecule: COc1cc(Nc2nc(Nc3cccc(S(N)(=O)=O)c3)ncc2F)ccc1NC(=O)CC#N [Compound I-84, N2-(3-Aminosulfonylphenyl)-5-fluoroN4-[3-methoxy-4-(N-cyanoacetyl)aminophneyl]-2,4-pyrimidinediamine]
- pIC50 [1]: 5.85

Molecule: Cc1cc(Nc2nc(Nc3cccc(S(N)(=O)=O)c3)ncc2F)ccc1OCc1ccccn1 [Compound I-167, N2-(3-Aminosulfonylphenyl)-5-fluoro-N4-[(4-((pyridin-2-yl)methoxy)-3-methylphenyl)]-2,4-pyrimidinediamine]
- pIC50 [2]: 6.85

Molecule: NC(=O)COc1cccc(Nc2nc(Nc3ccc(S(N)(=O)=O)cc3)ncc2F)c1 [Compound I-91, N4-(3-Aminocarbonylmethoxy)phenyl-N2-(4-aminosulfonyl)phenyl-5-fluoro-2,4-pyrimidinediamine]
- pIC50 [1]: 5.69

Molecule: COc1cc(Nc2nc(Nc3cccc(S(N)(=O)=O)c3)ncc2F)ccc1OCC(N)=O [Compound I-104, N4-(4-Aminocarbonylmethoxy-3-methoxyphenyl)-N2-(3-aminosulfonylphenyl)-5-fluoro-2,4-pyrimidinediamine]
- pIC50 [2]: 5.85

Molecule: NS(=O)(=O)c1ccc(Nc2ncc(F)c(Nc3cccc(OCc4cccnc4)c3)n2)cc1 [Compound I-185, N2-(4-Aminosulfonylphenyl)-5-fluoro-N4-[3-(3-pyridinyl)methyleneoxyphenyl]-2,4-pyrimidinediamine]
- pIC50 [1]: 6.53

Molecule: COc1cc(Nc2nc(Nc3ccc(C)c(S(N)(=O)=O)c3)ncc2F)ccc1NC(=O)CC#N [Compound I-85, N2-(3-Aminosulfonyl-4-methylphenyl)-5-fluoroN4-[3-methoxy-4-(N-cyanoacetyl)aminophneyl]-2,4-pyrimidinediamine]
- pIC50 [1]: 6.10
